Measurements: patent US6548553B2, “Styryl sulfone anticancer agents” (Temple University-of the Commonwealth System of Higher …, priority 1997, dated 2003)

Tests used:
Assay type in all cases: cell-based
[1] = tested on: LnCaP cells; experiment: Cell cycle analysis by propidium iodide flow cytometry (FACS); conditions: 2.0 μM; harvested 6, 12, 24 and 48 hours
Protocol: The androgen-dependent prostate tumor cell line LnCaP was grown as in Ex. 22, A, and treated with 2.0 μM FRI-20 dissolved in DMSO or with equivalent amounts ([…]) of DMSO alone. Cells were harvested 6, 12, 24, and 48 hours following treatment and stained with propidium iodide and subjected to flow cytometry (FACS) for analysis of DNA content.

[2] = tested on: MCF-7, HTB126, T470 and 435 cells; experiment: Trypan blue exclusion viability assay, breast tumor cell lines; conditions: 48 hours
Protocol: (§1) The effect of FR-20 on the growth of normal and tumor cells of breast and prostate was examine utilizing nine cell lines: NIH/3T3 and HFL (normal fibroblast cell lines); MCF-7 and 361 ([…] breast tumor cell lines); BT-20, 435 and SKBR-3 ([…] breast tumor cell lines); LnCaP (androgen sensitive prostate tumor cell line); PC-3 and DU-145 (androgen insensitive prostate tumor cell line).
(§2) The cells were grown as in Example 22, A. FR-20 was dissolved in DMSO and added to the cells at 2.5 μM and 5.0 μM concentration. To control cells, DMSO was added equivalent to the volume of solvent (DMSO) present at the highest concentration of the compound. The activity of the compound was evaluated after 48 hours by Trypan blue exclusion. […] Nearly 50% of SKBR-3 and BT-20 cells were dead at 2.5 μM and 75% at 5.0 μM concentration of the compound. […] FRI-20 had profound effect on the viability of androgen-dependent LnCaP prostate tumor cell line when compared to androgen-independent DU-145 and PC-3 prostate cell lines. At […] FRI-20, 80% of LnCaP, 40% of PC-3 and 20% of DU-145 cells were killed. At […] FRI-20, 72% of LnCaP, 47% of PC-3 and 40% of DU-145 were killed (FIG. 3B).

[3] = tested on: SKBR-3 and BT-20 cells; experiment: as above; conditions: 48 hours
Protocol: as §1, §2

[4] = tested on: DU-145 cells; experiment: Trypan blue exclusion viability assay, prostate tumor cell line; design: unit of the concentration uncertain; conditions: 48 hours
Protocol: as §1, §2

[5] = tested on: LnCaP prostate tumor cell line; experiment: as above; design: unit of the concentration uncertain; conditions: 48 hours
Protocol: as §1, §2

[6] = tested on: PC-3 cells; experiment: as above; design: unit of the concentration uncertain; conditions: 48 hours
Protocol: as §1, §2

[7] = tested on: JNK; experiment: JNK immune complex kinase assay with GST-c-Jun substrate, treated cells; conditions: 48 hours treatment; NIH3T3, MCF-7 or LnCaP
Protocol: To further establish if the activity of stress activated protein kinases (SAPKs), of which JNK is a member, is compromised in the presence of FRI-20, cells (NIH3T3, MCF-7 or LnCaP) were treated with FRI-20 dissolved in DMSO or with DMSO alone. Forty-eight hours later, the cells were lysed with kinase buffer and the lysates used for estimation of the amount of JNK present in each lysate by western blot analysis using JNK polyclonal antibody. The biochemical activity of the JNK present in the FRI-20-treated and mock-treated cell lysates was also determined by immunoprecipitation of JNK followed by incubation with GST-c-Jun protein as a substrate for JNK in the presence of [γ-^32P]ATP.
Accordingly, JNK-1 in 100 mg of cell extracts was immunoprecipitated by incubating the lysate with […] of JNK-1 polyclonal antibody (sc from Santa Cruz Biotechnology) for one hour followed by an additional incubation with 20 μl of protein A-Sepharose (Pharmacia) for one hour. The beads were washed twice with JNK lysis buffer (as described above) followed by two washes with JNK reaction buffer. The beads were resuspended in 40 μl of JNK buffer containing […] [γ-^32P] […] The reaction was stopped, and the radioactivity in the phosphorylated GST-c-Jun protein was quantitated.

[8] = tested on: HCT116; experiment: GI50 growth inhibition, trypan blue cell count; conditions: Homo sapiens, HCT-116; cob-rectal; 96 hours after addition
Protocol: (§3) The human carcinoma cell lines listed in Table 5 below were purchased from ATCC and grown in an appropriate growth medium containing 10% fetal bovine serum (FBS) and antibiotics. The cells were plated at a cell density of 1.0×10^5 cells per […] in 6-well dishes. The cells were treated with various concentrations of (E)-fluorostyryl-4-bromobenzylsulfone 24 hours after plating in a total volume of 1 ml of medium using dimethylsulfoxide (DMSO) as a solvent for the compound. Control cells were treated with DMSO alone. The total number of viable cells was determined 96 hours after the addition of the compound by counting the cells in each well using a hemacytometer after trypan blue staining (viable cells exclude the stain). The counts were done in duplicate and the average was graphed in FIG. 8 as a percentage of the non-treated control group.
(§4) Applying the same protocol as in Example 34, the GI50 for compound FRI-20 treatment of the cell lines in Table 6 was determined: […]

[9] = tested on: SW1088; experiment: GI50 growth inhibition, trypan blue cell count; conditions: Homo sapiens, astrocytoma, 96 hours after addition
Protocol: as §3, §4

[10] = tested on: BxPC-3; experiment: GI50 growth inhibition, trypan blue cell count; conditions: Homo sapiens, pancreatic, 96 hours after addition
Protocol: as §3, §4

[11] = tested on: H209; experiment: GI50 growth inhibition, trypan blue cell count; conditions: Homo sapiens, NCI-H209; lung, small cell; 96 hours after addition
Protocol: as §3, §4

[12] = tested on: Raji; experiment: GI50 growth inhibition, trypan blue cell count; conditions: Homo sapiens, Burkets lymphoma, 96 hours after addition
Protocol: as §3, §4

[13] = tested on: H1299; experiment: GI50 growth inhibition, trypan blue cell count; conditions: Homo sapiens, NCI-H1299; lung, non-small cell; 96 hours after addition
Protocol: as §3, §4

[14] = tested on: Detroit 525; experiment: GI50 growth inhibition, trypan blue cell count; conditions: Homo sapiens; Turner Syndrome skin fibroblast; 96 hours after addition
Protocol: as §3, §4

[15] = tested on: CEM; experiment: GI50 growth inhibition, trypan blue cell count; conditions: Homo sapiens, CCRF-CEM; acute lymphocytic lymphoma; 96 hours after addition
Protocol: as §3, §4

[16] = tested on: Hs-802.T; experiment: GI50 growth inhibition, trypan blue cell count; conditions: Homo sapiens; squamous cell carcinoma; 96 hours after addition
Protocol: as §3, §4

[17] = tested on: Daudi; experiment: GI50 growth inhibition, trypan blue cell count; conditions: Homo sapiens, Burkets lymphoma, 96 hours after addition
Protocol: as §3, §4

[18] = tested on: N417; experiment: GI50 growth inhibition, trypan blue cell count; conditions: Homo sapiens, lung, small cell, 96 hours after addition
Protocol: as §3, §4

[19] = tested on: CAKI-1; experiment: GI50 growth inhibition, trypan blue cell count; conditions: Homo sapiens, renal, 96 hours after addition
Protocol: as §3, §4

O=S(=O)(/C=C/c1ccc(F)cc1)Cc1ccc(Cl)cc1 [Example 11, E-4-fluorostyryl 4-chlorobenzyl Sulfone] was tested, and the “effect on cell cycle (DNA content)” value [1] was “accumulation of cells in the G2/M phase of the cell cycle”, the viability at 2.5 µM ([2]; 2.5 µM) was under 25% and the viability at 5 µM ([2]; 5.0 µM) was under 10%. It also gave a dead cells ([3]; 2.5 µM) of about 50%, a dead cells ([3]; 5.0 µM) of 75% and a cells killed ([4]; 2.5 µM) of 20%. For the same molecule, the cells killed ([4]; 5.0 µM) was 40%, the cells killed ([5]; 2.5 µM) was 80% and the cells killed ([5]; 5.0 µM) was 72%. For the same molecule, the cells killed ([6]; 2.5 µM) was 40%, the cells killed ([6]; 5.0 µM) was 47% and the “enhancement of JNK phosphorylation of GST-c-Jun compared to mock-treated cells” value [7] was 60-80%. The GI50 [8] was 1000 nM, the GI50 [9] was 2000 nM and the GI50 [10] was 500 nM. The GI50 [11] was 1000 nM, the GI50 [12] was 2000 nM and the GI50 [13] was 2000 nM. It also gave a GI50 [14] of 3000 nM, a GI50 [15] of 1000 nM and a GI50 [16] of 4000 nM. The GI50 [17] was 2000 nM, the GI50 [18] was 1000 nM and the GI50 [19] was 1500 nM.
